Assay [1] deals with T1, human EP4 receptor (Homo sapiens, UniProt P35408).
T1 construct: expressed in transfected cells; membrane fraction used
The assay can be described thus: cAMP assay (AlphaScreen) on human EP4 membrane of transfected cells, antagonism of PGE2. The class given is biochemical. The note with it: HEK293 hEP4 cell membrane stimulated with PGE2 3 nM; read-out: functional IC50. An excerpt:
(§1) Stable Expression of Human EP4 Receptors in the Human Embryonic Kidney (HEK293) Cell Line
(§2) The cDNA clone of human EP4 receptor (NM_000958.2) was obtained from Invitrogen™: Ultimate™ ORF Clone Collection—Clone ID IOH46525. The coding sequence was subcloned in expression vector pcDNA™6.2/V5-DEST by Gateway technology (Invitrogen™).
(§3) Human embryonic kidney cells (HEK-293) were stably transfected with expression vector for human EP4 receptor in according to the method described in FuGENE®6 Transfection Reagent's manual (Roche Applied Science®).
(§4) Preparation of Membrane Fraction:
(§5) The EP4 transfected cells were grown in Dulbecco's modified Eagle's medium containing 10% fetal bovine serum and 10 μg/ml Blasticidin S HCl (selection medium) at 37° C. in a humidified atmosphere of 5% CO2 in air.
(§6) For the membrane preparation, cells in flask were harvested by hypotonical/mechanical lysis with chilled (4° C.) TE buffer (5 mM TRIS, 5 mM etylenediamine tetra-acetic acid (EDTA), pH 7.4).
(§7) Cells were detached and lysed with 10 ml of hypotonic lysis buffer and by scraping. The cell lysate was vortexed for 30 sec and centrifuged at 40000×g at 4° C. for 22 min.
b) cAMP Assay on Human EP4 Membrane of Transfected Cells.
The assay is based on the competition between endogenous cAMP and exogenously added biotinylated cAMP. The capture of cAMP is achieved by using a specific antibody conjugated to […] beads.
Cell membranes prepared as described above, were resuspended in 1 ml stimulation buffer (HBSS 1×+BSA 0.1%+IBMX 0.5 mM+HEPES 5 mM+MgCl2 10 mM+GTP 1 nM+GDP 10 μM+ATP 100 μM−pH 7.4). Cell membranes were dispensed into white 384-well microplates at final concentration of 1 μg/well and used for the determination of cAMP with the alphascreen cAMP functional assay (EnVision—PerkinElmer). Cell membrane/anti-cAMP Acceptor beads mix (5 μl) and a mixture of analysed compounds (dissolved in 100% DMSO to a final maximal concentration of 0.01% DMSO)/PGE2 (5 μl) were incubated at room temperature (22-23° C.) for 30 min in the dark. The Biotinylated-cAMP and donor beads (15 μl) were dispensed into each well to start the competition reaction. After 1 h incubation RT (22-23° C.) in the dark the plate was read using EnVision platform to determine the cAMP level (excitation: 680 nm; emission: 520,620 nm).
cAMP standard curve (concentration range from 1×10-6 to 1×10-11 M in. log intervals) with a negative control (no cAMP) a positive control:forskolin 10 μM
Antagonism studies were performed stimulating HEK293 cell membrane with PGE2 3 nM. The AlphaScreen signal is plotted as a function of log concentration of cAMP and functional IC50 is determined. IC50 value is calculated by linear regression.
Some compounds were tested according to method of example 83b.

The target in assay [2] is T1, human EP4 receptor. Briefly: [3H]-Prostaglandin E2 membrane binding assay (human EP4/HEK293 transfectant membranes). The conditions noted are these: [3H]-PGE2 1 nM, hEP4/HEK293 membranes; Ki by Cheng-Prusoff; read-out: Binding pKi (converted).
From the text: as §1, §2, §3, §4, §5, §6, §7
a) Membrane Binding Assay[3H]-Prostaglandin E2
The membrane pellet was resuspended in the same buffer (5 mM TRIS, 5 mM ethylenediamine tetra-acetic acid (EDTA), pH 7.4), and protein concentration was determined by Bradford method (Bio-Bad® assay).
This membrane preparation was stored at −80° C. freezer until use for binding assay.
([^3H]-PGE2) membranes binding assays toward hEP4 receptors (human EP4/HEK293 transfectant, see above) and hEP2 receptors (human EP2/HEK293 transfectant, purchased from PerkinElmer Inc) were performed in 10 mM MES-KOH buffer pH6, containing 10 mM MgCl2 and 1 mM CaCl2 for EP4 binding assay or 50 mM Tris-Cl, BSA 0.5% for EP2 binding assay (according to supplier indication).
Ten microgram of protein from membrane fractions were incubated in a total volume of 0.1 ml (EP4) or 0.2 ml (EP2) with 1 nM (EP4) or 3 nM (EP2) [^3H]-PGE2 (PerkinElmer Inc, 171 Ci/mmol). In both assays to determine the total binding or non specific binding, 1% DMSO or 1 μM prostaglandin E2 (EP4) or 100 μM (EP2) were added to reaction mixtures, respectively. Incubation was conducted in a polypropylene 96 multiwell for 90 min (EP4) or 60 min (EP2) at room temperature prior to separation of the bound and free radioligand by vacuum manifold rapid filtration on glass fiber filters (Unifilter GFB96, PerkinElmer Inc) pre-soaked in 0.3% polyethyleneimine. Filters were washed with ice cold buffer pH 7.4 (50 mM HEPES, NaCl 500 mM, BSA 0.1% for EP4 binding assay or 50 mM Tris-Cl for EP2 binding assays) and the residual [^3H]-PGE2 binding determined by solid scintillation counter (TopCount, PerkinElmer Inc).
The affinity (Ki) of each compound was calculated according to the Cheng-Prousoff equation: Ki=IC50/(1+([C]/Kd)). Results were expressed as pKi (−log 10 Ki (M)
Compounds of example 1 to 82 were tested according to method of example 83a in a final concentration range from 1 nM to 1 μM.

Here are results for 19 molecules from patent US8828987B2, “Pyridine amide derivatives as EP4 receptor antagonists” (Rottapharm Biotech S.R.L., priority 2010, dated 2014).

T1 sequence (P35408 whole entry): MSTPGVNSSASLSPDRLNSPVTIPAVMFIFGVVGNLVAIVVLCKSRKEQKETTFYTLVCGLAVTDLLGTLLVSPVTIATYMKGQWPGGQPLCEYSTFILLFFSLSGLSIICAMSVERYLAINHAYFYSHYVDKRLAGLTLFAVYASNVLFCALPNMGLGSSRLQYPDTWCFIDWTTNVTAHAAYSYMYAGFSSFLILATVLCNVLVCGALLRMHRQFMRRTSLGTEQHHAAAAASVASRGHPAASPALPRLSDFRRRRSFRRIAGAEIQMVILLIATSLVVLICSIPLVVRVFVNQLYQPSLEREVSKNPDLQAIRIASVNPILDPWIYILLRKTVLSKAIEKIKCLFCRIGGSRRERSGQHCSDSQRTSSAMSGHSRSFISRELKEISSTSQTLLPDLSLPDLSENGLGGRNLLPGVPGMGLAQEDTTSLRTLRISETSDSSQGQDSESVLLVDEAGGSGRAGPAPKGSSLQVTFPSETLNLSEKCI

With `O=C(O)c1ccc(C2(NC(=O)c3cc(Cl)cnc3N3CCCC3c3ccccc3)CC2)cc1` (single isomer, unassigned) [E 1, 4-(1-(5-chloro-2-(2-phenylpyrrolidin-1-yl)nicotinamido)cyclopropyl)benzoic acid], the IC50 on human EP4 receptor [1] came out at 235 nM. Also, the Ki at human EP4 receptor [2] was 398 nM.
Take `O=C(O)c1ccc(C2(NC(=O)c3cc(C(F)(F)F)cnc3N3CC(Oc4cccc(OC(F)(F)F)c4)C3)CC2)cc1` [E 43, 4-(1-(2-(3-(3-(trifluoromethoxy)phenoxy)azetidin-1-yl)-5-(trifluoromethyl)nicotinamido)cyclopropyl)benzoic acid]: at human EP4 receptor [1], the IC50 came out at 38 nM. In addition, the Ki on human EP4 receptor [2] is 3.16 nM.
The corresponding values for `O=C(O)c1ccc(C2(NC(=O)c3cc(Cl)cnc3N3CC(Oc4ccc(F)c(C(F)(F)F)c4)C3)CC2)cc1` [E 17, 4-(1-(5-chloro-2-(3-(4-fluoro-3-(trifluoromethyl)phenoxy)azetidin-1-yl)nicotinamido)cyclopropyl)benzoic acid] are 82 nM and 20 nM.
`O=C(O)c1ccc(C2(NC(=O)c3cc(Cl)cnc3N3CCC(Oc4cccc(C(F)(F)F)c4)C3)CC2)cc1` (single isomer, unassigned) [E 65, 4-(1-(5-chloro-2-(3-(3-(trifluoromethyl)phenoxy)pyrrolidin-1-yl)nicotinamido)cyclopropyl)benzoic acid]: on human EP4 receptor [1], the IC50 worked out at 65 nM. For the same molecule, the Ki at human EP4 receptor [2] is 39.8 nM.
For `O=C(O)c1ccc(C2(NC(=O)c3cc(Cl)cnc3N3CC(Oc4ccc(F)c(F)c4)C3)CC2)cc1` [E 20, 4-(1-(5-chloro-2-(3-(3,4-difluorophenoxy)azetidin-1-yl)nicotinamido)cyclopropyl)benzoic acid], the IC50 at human EP4 receptor [1] turned out to be 70 nM. Further, on human EP4 receptor [2], the Ki is 10 nM.
As to `O=C(O)c1ccc(C2(NC(=O)c3cc(Cl)cnc3N3CCC(Oc4cccc(F)c4)C3)CC2)cc1` (single isomer, unassigned) [E 69, 4-(1-(5-chloro-2-(3-(3-fluorophenoxy)pyrrolidin-1-yl)nicotinamido)cyclopropyl)benzoic acid], the IC50 on human EP4 receptor [1] is 308 nM. In addition, the Ki at human EP4 receptor [2] is 50.1 nM.
For `O=C(O)c1ccc(C2(NC(=O)c3cc(F)cnc3N3CC(Oc4cccc(OC(F)(F)F)c4)C3)CC2)cc1` [E 55, 4-(1-(5-fluoro-2-(3-(3-(trifluoromethoxy)phenoxy)azetidin-1-yl)nicotinamido)cyclopropyl)benzoic acid] the same measures were 126 nM and 31.6 nM.
On to `O=C(O)c1ccc(C2(NC(=O)c3cc(F)cnc3N3CC(Oc4cccc(F)c4)C3)CC2)cc1` [E 53, 4-(1-(5-fluoro-2-(3-(3-fluorophenoxy)azetidin-1-yl)nicotinamido)cyclopropyl)benzoic acid], for which the IC50 at human EP4 receptor [1] worked out at 80 nM. In addition, the Ki at human EP4 receptor [2] is 31.6 nM.
The corresponding values for `O=C(O)c1ccc(C2(NC(=O)c3cc(Cl)cnc3N3CCC(c4ccccc4)C3)CC2)cc1` (single isomer, unassigned) [E 4, 4-(1-(5-chloro-2-(3-phenylpyrrolidin-1-yl)nicotinamido)cyclopropyl)benzoic acid] are 102 nM and 200 nM.
In the case of `O=C(O)c1ccc(C2(NC(=O)c3cc(Cl)cnc3N3CC(Oc4ccc(F)cc4)C3)CC2)cc1` [E 15, 4-(1-(5-chloro-2-(3-(4-fluorophenoxy)azetidin-1-yl)nicotinamido)cyclopropyl)benzoic acid], on human EP4 receptor [1], the IC50 is 70 nM. Moreover, the Ki on human EP4 receptor [2] was 12.6 nM.
Take `O=C(O)c1ccc(C2(NC(=O)c3cc(Cl)cnc3N3CC(Oc4cccc(OC(F)(F)F)c4)C3)CC2)cc1` [E 18, 4-(1-(5-chloro-2-(3-(3-(trifluoromethoxy)phenoxy)azetidin-1-yl)nicotinamido)cyclopropyl)benzoic acid]: the IC50 at human EP4 receptor [1] amounted to 22 nM. Also, the Ki on human EP4 receptor [2] is 12.6 nM.
The corresponding values for `O=C(O)c1ccc(C2(NC(=O)c3cc(Cl)cnc3N3CCC(Oc4cccc(C(F)(F)F)c4)C3)CC2)cc1` (single isomer, unassigned) [E 64, 4-(1-(5-chloro-2-(3-(3-(trifluoromethyl)phenoxy)pyrrolidin-1-yl)nicotinamido)cyclopropyl)benzoic acid] are 99 nM and 31.6 nM.
For `O=C(O)c1ccc(C2(NC(=O)c3cc(C(F)(F)F)cnc3N3CC(Oc4ccc(F)c(C(F)(F)F)c4)C3)CC2)cc1` [E 42, 4-(1-(2-(3-(4-fluoro-3-(trifluoromethyl)phenoxy)azetidin-1-yl)-5-(trifluoromethyl)nicotinamido)cyclopropyl)benzoic acid] the same measures were 35 nM and 3.16 nM.
In the case of `O=C(O)c1ccc(C2(NC(=O)c3cc(Cl)cnc3N3CC(Oc4cccc(C(F)(F)F)c4)C3)CC2)cc1` [E 14, 4-(1-(5-chloro-2-(3-(3-(trifluoromethyl)phenoxy)azetidin-1-yl)nicotinamido)cyclopropyl)benzoic acid], at human EP4 receptor [1], the IC50 was determined as 38 nM. Moreover, on human EP4 receptor [2], the Ki is 5.01 nM.
For `O=C(O)c1ccc(C2(NC(=O)c3cc(Cl)cnc3N3CCC(Oc4cccc(C(F)(F)F)c4)C3)CC2)cc1` (single isomer, unassigned) [E 63, 4-(1-(5-chloro-2-(3-(3-(trifluoromethyl)phenoxy)pyrrolidin-1-yl)nicotinamido)cyclopropyl)benzoic acid] the same measures were 145 nM and 31.6 nM.
With `O=C(O)c1ccc(C2(NC(=O)c3cc(F)cnc3N3CC(Oc4cccc(Cl)c4)C3)CC2)cc1` [E 54, 4-(1-(5-fluoro-2-(3-(3-chlorophenoxy)azetidin-1-yl)nicotinamido)cyclopropyl)benzoic acid], the IC50 on human EP4 receptor [1] amounted to 75 nM. Also, the Ki at human EP4 receptor [2] is 25.1 nM.
The corresponding values for `O=C(NC1(c2ccc(-c3nnn[nH]3)cc2)CC1)c1cc(Cl)cnc1N1CC(Oc2cccc(F)c2)C1` [E 82, N-(1-(4-(1H-tetrazol-5-yl)phenyl)cyclopropyl)-5-chloro-2-(3-(3-fluorophenoxy)azetidin-1-yl)nicotinamide] are 27 nM and 5.01 nM.
For the molecule `C[C@H](NC(=O)c1cc(Cl)cnc1N1CC(Oc2cccc(F)c2)C1)c1ccc(C(=O)O)cc1` [E 12, (S)-4-(1-(5-chloro-2-(3-(3-fluorophenoxy)azetidin-1-yl)nicotinamido)ethyl)benzoic acid], the IC50 on human EP4 receptor [1] is 102 nM. Also, at human EP4 receptor [2], the Ki was 15.8 nM.
Consider `Cc1cc(C(F)(F)F)ccc1NC1CN(c2ncc(Cl)cc2C(=O)NC2(c3ccc(C(=O)O)cc3)CC2)C1` [E 36, 4-(1-(5-chloro-2-(3-((2-methyl-4-(trifluoromethyl)phenyl)amino)azetidin-1-yl)nicotinamido)cyclopropyl)benzoic acid], for which the IC50 on human EP4 receptor [1] was 30 nM. Besides, on human EP4 receptor [2], the Ki was 3.98 nM.
